# Assay results as given in patent US9902728B2, “Pyrrolo and pyrazolopyrimidines as ubiquitin-specific protease 7 inhibitors” (Forma Therapeutics, Inc., priority 2014, dated 2018).
# Biological target: T1, USP7 (Homo sapiens, UniProt Q93009)
# T1 construct: USP7, construct USP7 (208-1102) 6*His, Viva Biotech; 6xHis (C); purchased Viva Biotech
# Assay: USP7 Assay A (Ubitquin-Rhodamine 110 Assay)
# Assay type: biochemical
# Conditions: USP7 activity in USP7 assay A and B (table does not say which assay per compound); read-out: USP7_IC50
# Summary of the method: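 Ub-Rh110 cleavage in 20 mM Tris-HCl pH 8.0 with 1 mM GSH, 0.03% BGG, 0.01% Triton X-100; compound preincubated with enzyme 30 min before substrate.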
# T1 sequence (Q93009 208-1102): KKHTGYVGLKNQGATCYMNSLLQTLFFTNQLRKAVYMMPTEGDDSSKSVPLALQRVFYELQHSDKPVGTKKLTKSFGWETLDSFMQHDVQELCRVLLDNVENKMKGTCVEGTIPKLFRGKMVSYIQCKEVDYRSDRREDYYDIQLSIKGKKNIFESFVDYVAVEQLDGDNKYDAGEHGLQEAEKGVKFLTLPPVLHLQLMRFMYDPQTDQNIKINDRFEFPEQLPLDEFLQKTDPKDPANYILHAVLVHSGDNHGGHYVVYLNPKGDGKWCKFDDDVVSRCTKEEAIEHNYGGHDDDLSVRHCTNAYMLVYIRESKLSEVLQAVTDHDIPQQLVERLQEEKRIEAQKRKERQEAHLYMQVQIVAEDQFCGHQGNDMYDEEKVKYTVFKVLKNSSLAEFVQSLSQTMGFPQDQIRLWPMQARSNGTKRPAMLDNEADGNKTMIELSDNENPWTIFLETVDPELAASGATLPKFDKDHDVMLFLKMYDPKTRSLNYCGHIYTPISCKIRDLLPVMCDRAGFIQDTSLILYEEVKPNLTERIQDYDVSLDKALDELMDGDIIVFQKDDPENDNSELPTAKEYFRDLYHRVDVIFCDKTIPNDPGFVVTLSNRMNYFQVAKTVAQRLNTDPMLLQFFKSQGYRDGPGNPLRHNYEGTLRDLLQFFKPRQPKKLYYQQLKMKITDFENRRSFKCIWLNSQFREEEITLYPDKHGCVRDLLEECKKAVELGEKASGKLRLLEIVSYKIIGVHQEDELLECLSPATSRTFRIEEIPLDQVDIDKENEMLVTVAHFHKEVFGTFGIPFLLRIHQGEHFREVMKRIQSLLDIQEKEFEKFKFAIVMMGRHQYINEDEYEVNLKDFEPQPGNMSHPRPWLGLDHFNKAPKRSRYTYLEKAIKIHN
row,Structure (SMILES),IC50
1,Cc1ncc(C(=O)N2CCC(O)(Cn3cnc4c(cnn4-c4ccc(OCC5(F)CCC5)cc4)c3=O)CC2)o1 [Compound I-1135],< 200 nM
2,CC1(COc2ccc(-n3ncc4c(=O)n(CC5(O)CCN(C(=O)C6(C)CCC6)CC5)cnc43)cc2)COC1 [Compound I-1136],< 200 nM
3,CC1(C(=O)N2CCC(O)(Cn3cnc4c(cnn4-c4ccc(OCC5(F)CCC5)cc4)c3=O)CC2)CCC1 [Compound I-1137],< 200 nM
4,Cc1ccc(-n2ncc3c(=O)n(CC4(O)CCN(C(=O)c5ccc(Cl)cc5N)CC4)cnc32)cc1 [Compound I-1140],200 to 1000 nM
5,O=C(C[C@H](C(F)F)n1cc(F)cn1)N1CCC(O)(Cn2cnc3c(cnn3-c3ccc(F)cc3)c2=O)CC1 [Compound I-1159],< 200 nM
6,Cc1ccc(-n2ncc3c(=O)n(CC4(O)CCN(C(=O)c5ccc(Oc6ccc(OCCO)cn6)cc5)CC4)cnc32)cc1 [Compound I-1160],200 to 1000 nM
7,Cn1cc(C(=O)N2CCC(O)(Cn3cnc4c(cnn4-c4ccc(F)cc4)c3=O)CC2)c(Cc2ccccc2)n1 [Compound I-1161],< 200 nM
8,C[C@H](c1ccccc1)c1nn(C)cc1C(=O)N1CCC(O)(Cn2cnc3c(cnn3-c3ccc(F)cc3)c2=O)CC1 [Compound I-1162],< 200 nM
9,C[C@@H](c1ccccc1)c1nn(C)cc1C(=O)N1CCC(O)(Cn2cnc3c(cnn3-c3ccc(F)cc3)c2=O)CC1 [Compound I-1163],1000 to 10000 nM
10,Cc1onc(Cc2ccccc2)c1C(=O)N1CCC(O)(Cn2cnc3c(cnn3-c3ccc(F)cc3)c2=O)CC1 [Compound I-1164],< 200 nM
11,O=C(C[C@@H](C(F)F)n1ccc(F)n1)N1CCC(O)(Cn2cnc3c(cnn3-c3ccc(Cl)cc3)c2=O)CC1 [Compound I-1166],< 200 nM
12,O=C(C[C@H](C(F)F)n1ccc(F)n1)N1CCC(O)(Cn2cnc3c(cnn3-c3ccc(Cl)cc3)c2=O)CC1 [Compound I-1167],1000 to 10000 nM
13,CC1(O)CCN(c2ccc(-n3ncc4c(=O)n(CC5(O)CCN(C(=O)c6ccc(F)cc6)CC5)cnc43)cc2)C1 (stereo not shown) [Compound I-1168],200 to 1000 nM
14,O=C(c1ccc(F)cc1)N1CCC(O)(Cn2cnc3c(cnn3-c3ccc(N4CCCn5ccnc54)cc3)c2=O)CC1 [Compound I-1170],200 to 1000 nM

# Same assay, conditions: USP7 assay A and B (table does not say which assay per compound); read-out: USP7_IC50
row,Structure (SMILES),IC50
1,CO[C@@H]1CCN(c2ccc(-n3ncc4c(=O)n(CC5(O)CCN(C(=O)N(C)C)CC5)cnc43)cc2)C1 [Compound I-1138],1000 to 10000 nM
2,Cc1ccc(-n2ncc3c(=O)n(CC4(O)CCN(C(=O)C[C@H](C)c5ccccc5)CC4)cnc32)cc1 [Compound I-1139],< 200 nM
3,"Cc1ccc(-n2ncc3c(=O)n(CC4(O)CCN(C(=O)c5ccc(OC6CCC(O)CC6)cc5)CC4)cnc32)cc1 (stereo not shown) [Compound I-1141, 5-((4-Hydroxy-1-(4-(4-hydroxycyclohexyloxy)benzoyl)piperidin-4-yl)methyl)-1-p-tolyl-1H-pyrazolo[3,4-d]pyrimidin-4 (5H)-one]",1000 to 10000 nM
4,Cc1ccc(-n2ncc3c(=O)n(CC4(O)CCN(C(=O)c5ccc(OC6CN(C)C6)cc5)CC4)cnc32)cc1 [Compound I-1142],1000 to 10000 nM
5,Cc1ccc(-n2ncc3c(=O)n(CC4(O)CCN(C(=O)c5ccc(OC6CCOCC6)cc5)CC4)cnc32)cc1 [Compound I-1144],1000 to 10000 nM
6,Cc1ccc(-n2ncc3c(=O)n(CC4(O)CCN(C(=O)c5ccc(OC6CCNCC6)cc5)CC4)cnc32)cc1 [Compound I-1145],1000 to 10000 nM
7,O=C(C1CC1)N1CCC(O)(Cn2cnc3c(cnn3-c3ccc(NCCN4CCCCC4)cc3)c2=O)CC1 [Compound I-1146],200 to 1000 nM
8,CC(C)OCCNc1ccc(-n2ncc3c(=O)n(CC4(O)CCN(C(=O)C5CC5)CC4)cnc32)cc1 [Compound I-1149],1000 to 10000 nM
9,CN1CCCC(CNc2ccc(-n3ncc4c(=O)n(CC5(O)CCN(C(=O)C6CC6)CC5)cnc43)cc2)C1 (stereo not shown) [Compound I-1151],200 to 1000 nM
10,O=C(C1CC1)N1CCC(O)(Cn2cnc3c(cnn3-c3cccc(NCc4ccccc4)c3)c2=O)CC1 [Compound I-1155],200 to 1000 nM
11,O=C(C1CC1)N1CCC(O)(Cn2cnc3c(cnn3-c3cccc(NCc4cccnc4)c3)c2=O)CC1 [Compound I-1158],1000 to 10000 nM
